# Values of other authors in PubChem BioAssay AID1259409 (Chemical Carcinogenesis Research Information System (CCRIS), 2018).
# System: rodent chemically induced tumor inhibition, incidence and multiplicity
# Test: CCRIS tumor inhibitor studies
smiles,measurement,setting,value
COc1cc(/C=C/C(=O)CC(=O)/C=C/c2ccc(O)c(OC)c2)ccc1O,"tumour outcome (control, treated, inhibition, significance)","Carcinogen: 7,12-DIMETHYLBENZ[A]ANTHRACENE, 57-97-6, Dose [Inhibitor]: 10 UMOL IN MINERAL OIL APPLIED TO BUCCAL POUCH 3/WK BEGINNING 2 D AFTER LAST CARCINOGEN DOSE (STUDY DURATION: 24 WK), Route [Inhibitor]: MUCOUS MEMBRANE, Species: HAMSTER, Strain/Sex: SYRIAN/MALE, Target Tissue: Type of Lesion: BUCCAL POUCH: PAPILLOMA, Dose [Carcinogen]: 0.5% IN MINERAL OIL APPLIED TO BUCCAL POUCH 3'/WK FOR 6 WK, Promoter: NONE USED","21/26 (80.7%), 20/26 (76.9%), 4.71%, not significant"
same,"tumour outcome (control, treated, inhibition, significance)","Carcinogen: 7,12-DIMETHYLBENZ[A]ANTHRACENE, 57-97-6, Dose [Inhibitor]: 10 UMOL IN MINERAL OIL APPLIED TO BUCCAL POUCH 3/WK BEGINNING 2 D AFTER LAST CARCINOGEN DOSE (STUDY DURATION: 24 WK), Route [Inhibitor]: MUCOUS MEMBRANE, Species: HAMSTER, Strain/Sex: SYRIAN/MALE, Target Tissue: Type of Lesion: BUCCAL POUCH: SQUAMOUS CELL CARCINOMA, Dose [Carcinogen]: 0.5% IN MINERAL OIL APPLIED TO BUCCAL POUCH 3'/WK FOR 6 WK, Promoter: NONE USED","20/26 (76.9%), 13/26 (50%), 35%, p< 0.05"
same,"tumour outcome (control, treated, inhibition, significance)","Carcinogen: 7,12-DIMETHYLBENZ[A]ANTHRACENE, 57-97-6, Dose [Inhibitor]: 10 UMOL IN MINERAL OIL APPLIED TO BUCCAL POUCH 3/WK BEGINNING 2 D AFTER LAST CARCINOGEN DOSE (STUDY DURATION: 24 WK), Route [Inhibitor]: MUCOUS MEMBRANE, Species: HAMSTER, Strain/Sex: SYRIAN/MALE, Target Tissue: Type of Lesion: BUCCAL POUCH: TUMOR, Dose [Carcinogen]: 0.5% IN MINERAL OIL APPLIED TO BUCCAL POUCH 3'/WK FOR 6 WK, Promoter: NONE USED","24/26 (92.3%), 20/26 (76.9%), 16.7%, not significant"
same,"tumour outcome (control, treated, inhibition, significance)","Carcinogen: 7,12-Dimethylbenzanthracene, 57-97-6, Dose [Inhibitor]: 1% as turmeric (equivalent to 0.05% curcumin) in diet, starting 15 d before carcinogen application to 12 wks after carci, Route [Inhibitor]: Diet, Species: Hamster, Strain/Sex: Syrian golden/Male, Target Tissue: Type of Lesion: Buccal (oral) tissues: Tumor, Dose [Carcinogen]: 0.5% in 0.1 ml oil 3 x wk for 12 wk, study duration 12 wk, Promoter: None","100%, 55%, 45% at 12 wks (from table)"
same,"tumour outcome (control, treated, inhibition, significance)","Carcinogen: AZOXYMETHANE, 25843-45-2, Dose [Inhibitor]: 0, 0.5% COMMERCIAL GRADE CURCUMIN IN DIET FOR 35 WK BEGINNING 2 WK PRIOR TO CARCINOGEN TREATMENT (STUDY DURATION: 35 WK), Route [Inhibitor]: ORAL, Species: MOUSE, Strain/Sex: CF-1/FEMALE, Target Tissue: Type of Lesion: COLON: ADENOCARCINOMA, Dose [Carcinogen]: 10 MG/KG BW IN 100 µL NORMAL SALINE 1/WK FOR 6 WK, Promoter: NONE USED","40%, 22%, 45%, not significant"
same,"tumour outcome (control, treated, inhibition, significance)","Carcinogen: AZOXYMETHANE, 25843-45-2, Dose [Inhibitor]: 0, 0.5% COMMERCIAL GRADE CURCUMIN IN DIET FOR 35 WK BEGINNING 2 WK PRIOR TO CARCINOGEN TREATMENT (STUDY DURATION: 35 WK), Route [Inhibitor]: ORAL, Species: MOUSE, Strain/Sex: CF-1/FEMALE, Target Tissue: Type of Lesion: COLON: ADENOMA, Dose [Carcinogen]: 10 MG/KG BW IN 100 µL NORMAL SALINE 1/WK FOR 6 WK, Promoter: NONE USED","93%, 69%, 26%, not significant"
same,"tumour outcome (control, treated, inhibition, significance)","Carcinogen: AZOXYMETHANE, 25843-45-2, Dose [Inhibitor]: 0, 2% COMMERCIAL GRADE CURCUMIN IN DIET FOR 9 WK BEGINNING 2 WK PRIOR TO CARCINOGEN TREATMENT (STUDY DURATION: 35 WK), Route [Inhibitor]: ORAL, Species: MOUSE, Strain/Sex: CF-1/FEMALE, Target Tissue: Type of Lesion: COLON: ADENOCARCINOMA, Dose [Carcinogen]: 10 MG/KG BW IN 100 µL NORMAL SALINE 1/WK FOR 6 WK, Promoter: NONE USED","40%, 9%, 78%, not significant"
same,"tumour outcome (control, treated, inhibition, significance)","Carcinogen: AZOXYMETHANE, 25843-45-2, Dose [Inhibitor]: 0, 2% COMMERCIAL GRADE CURCUMIN IN DIET FOR 9 WK BEGINNING 2 WK PRIOR TO CARCINOGEN TREATMENT (STUDY DURATION: 35 WK), Route [Inhibitor]: ORAL, Species: MOUSE, Strain/Sex: CF-1/FEMALE, Target Tissue: Type of Lesion: COLON: ADENOMA, Dose [Carcinogen]: 10 MG/KG BW IN 100 µL NORMAL SALINE 1/WK FOR 6 WK, Promoter: NONE USED","93%, 61%, 34%, not significant"
same,"tumour outcome (control, treated, inhibition, significance)","Carcinogen: AZOXYMETHANE, 25843-45-2, Dose [Inhibitor]: 0, 2% COMMERCIAL GRADE CURCUMIN IN DIET FOR 26 WK BEGINNING 1 WK POST CARCINOGEN TREATMENT (STUDY DURATION: 35 WK), Route [Inhibitor]: ORAL, Species: MOUSE, Strain/Sex: CF-1/FEMALE, Target Tissue: Type of Lesion: COLON: ADENOCARCINOMA, Dose [Carcinogen]: 10 MG/KG BW IN 100 µL NORMAL SALINE 1/WK FOR 6 WK, Promoter: NONE USED","40%, 24%, 40%, not significant"
same,"tumour outcome (control, treated, inhibition, significance)","Carcinogen: AZOXYMETHANE, 25843-45-2, Dose [Inhibitor]: 0, 2% COMMERCIAL GRADE CURCUMIN IN DIET FOR 26 WK BEGINNING 1 WK POST CARCINOGEN TREATMENT (STUDY DURATION: 35 WK), Route [Inhibitor]: ORAL, Species: MOUSE, Strain/Sex: CF-1/FEMALE, Target Tissue: Type of Lesion: COLON: ADENOMA, Dose [Carcinogen]: 10 MG/KG BW IN 100 µL NORMAL SALINE 1/WK FOR 6 WK, Promoter: NONE USED","93%, 85%, 9%, not significant"
same,"tumour outcome (control, treated, inhibition, significance)","Carcinogen: AZOXYMETHANE, 25843-45-2, Dose [Inhibitor]: 0, 2% COMMERCIAL GRADE CURCUMIN IN DIET FOR 35 WK BEGINNING 2 WK PRIOR TO CARCINOGEN TREATMENT (STUDY DURATION: 35 WK), Route [Inhibitor]: ORAL, Species: MOUSE, Strain/Sex: CF-1/FEMALE, Target Tissue: Type of Lesion: COLON: ADENOCARCINOMA, Dose [Carcinogen]: 10 MG/KG BW IN 100 µL NORMAL SALINE 1/WK FOR 6 WK, Promoter: NONE USED","40%, 0%, 100%, not significant"
same,"tumour outcome (control, treated, inhibition, significance)","Carcinogen: AZOXYMETHANE, 25843-45-2, Dose [Inhibitor]: 0, 2% COMMERCIAL GRADE CURCUMIN IN DIET FOR 35 WK BEGINNING 2 WK PRIOR TO CARCINOGEN TREATMENT (STUDY DURATION: 35 WK), Route [Inhibitor]: ORAL, Species: MOUSE, Strain/Sex: CF-1/FEMALE, Target Tissue: Type of Lesion: COLON: ADENOMA, Dose [Carcinogen]: 10 MG/KG BW IN 100 µL NORMAL SALINE 1/WK FOR 6 WK, Promoter: NONE USED","93%, 68%, 27%, not significant"
same,"tumour outcome (control, treated, inhibition, significance)","Carcinogen: AZOXYMETHANE, 25843-45-2, Dose [Inhibitor]: 0, 2% PURE CURCUMIN IN DIET FOR 35 WK BEGINNING 2 WK PRIOR TO CARCINOGEN TREATMENT (STUDY DURATION: 35 WK), Route [Inhibitor]: ORAL, Species: MOUSE, Strain/Sex: CF-1/FEMALE, Target Tissue: Type of Lesion: COLON: ADENOCARCINOMA, Dose [Carcinogen]: 10 MG/KG BW IN 100 µL NORMAL SALINE 1/WK FOR 6 WK, Promoter: NONE USED","40%, 14%, 65%, not significant"
same,"tumour outcome (control, treated, inhibition, significance)","Carcinogen: AZOXYMETHANE, 25843-45-2, Dose [Inhibitor]: 0, 2% PURE CURCUMIN IN DIET FOR 35 WK BEGINNING 2 WK PRIOR TO CARCINOGEN TREATMENT (STUDY DURATION: 35 WK), Route [Inhibitor]: ORAL, Species: MOUSE, Strain/Sex: CF-1/FEMALE, Target Tissue: Type of Lesion: COLON: ADENOMA, Dose [Carcinogen]: 10 MG/KG BW IN 100 µL NORMAL SALINE 1/WK FOR 6 WK, Promoter: NONE USED","93%, 62%, 33%, not significant"
